# Assay results published in patent US20170050957A1, “4-AMINO-6-(HETEROCYCLIC)PICOLINATES AND 6-AMINO-2-(HETEROCYCLIC)PYRIMIDINE-4-CARBOXYLATES AND THEIR USE AS HERBICIDES” (Dow AgroSciences LLC, priority 2013, published 2017).
# Key:
# [1] = test system: undesirable vegetation; assay: Herbicidal activity, comparison X is CF with X is CH; format: in vivo; conditions: 1.08 and 1.09 vs 1.21 and 1.22; 1.15 and 1.16 vs 1.23 and 1.24; A is A15
# [2] = test system: Wheat and Barley and test plant species; assay: Post-emergent Test III, herbicidal activity in wheat and barley (Table 17; visual injury, GR20/GR50/GR80/GR90); format: in vivo; conditions: 21 d; for Visual Growth Reduction (%) 21 Days After Application, CIRAR / Visual Growth Reduction (%) 21 Days After Application, GALAP / Visual Growth Reduction (%) 21 Days After Application, HORVS / Visual Growth Reduction (%) 21 Days After Application, KCHSC / Visual Growth Reduction (%) 21 Days After Application, LAMPU / Visual Growth Reduction (%) 21 Days After Application, MATCH / Visual Growth Reduction (%) 21 Days After Application, PAPRH / Visual Growth Reduction (%) 21 Days After Application, SASKR / Visual Growth Reduction (%) 21 Days After Application, SINAR / Visual Growth Reduction (%) 21 Days After Application, TRZAS / Visual Growth Reduction (%) 21 Days After Application, VERPE / Visual Growth Reduction (%) 21 Days After Application, VIOTR: post-emergent
# Procedure: Post-emergent Test III. Seeds of the desired test plant species were planted in Sun Gro MetroMix® 306 planting mixture, which typically has a pH of 6.0 to 6.8 and an organic matter content of about 30 percent, in plastic pots with a surface area of 103.2 square centimeters (cm^2). When required to ensure good germination and healthy plants, a fungicide treatment and/or other chemical or physical treatment was applied. The plants were grown for 7-36 days (d) in a greenhouse with an approximate 14 hour (h) photoperiod which was maintained at about 18° C. during the day and 17° C. during the night. Nutrients and water were added on a regular basis and supplemental lighting was provided with overhead metal halide 1000-Watt lamps as necessary. The plants were employed for testing when they reached the second or third true leaf stage.
# A weighed amount, determined by the highest rate to be tested, of each test compound was placed in a 25 mL glass vial and was dissolved in 4 mL of a 97:3 v/v mixture of acetone and DMSO to obtain concentrated stock solutions. […] The concentrated stock solutions obtained were diluted with 20 mL of an aqueous mixture containing acetone, water, isopropyl alcohol, DMSO, Agri-Dex crop oil concentrate, and X-77 surfactant in a 48:39:10:1.5:1.5:0.02 v/v ratio to obtain spray solutions containing the highest application rates. Additional application rates were obtained by serial dilution of 12 mL of the high rate solution into a solution containing 2 mL of 97:3 v/v mixture of acetone and DMSO and 10 mL of an aqueous mixture containing acetone, water, isopropyl alcohol, DMSO, Agri-Dex crop oil concentrate, and X-77 surfactant in a 48:39:10:1.5:1.5:0.02 v/v ratio to obtain 1/2×, 1/4×, 1/8× and 1/16× rates of the high rate. Compound requirements are based upon a 12 mL application volume at a rate of 187 liters per hectare (L/ha). Formulated compounds were applied to the plant material with an overhead Mandel track sprayer equipped with 8002E nozzles calibrated to deliver 187 L/ha over an application area of 0.503 square meters at a spray height of 18 inches (43 cm) above the average plant canopy height. Control plants were sprayed in the same manner with the solvent blank.
# The treated plants and control plants were placed in a greenhouse as described above and watered by subirrigation to prevent wash-off of the test compounds. After 21 d, the condition of the test plants as compared with that of the untreated plants was determined visually and scored on a scale of 0 to 100 percent where 0 corresponds to no injury and 100 corresponds to complete kill. By applying the well-accepted probit analysis as described by J. Berkson in Journal of the American Statistical […], 48, 565 (1953) and by D. Finney in “Probit Analysis” Cambridge University Press (1952), the above data can be used to calculate GR20, GR50, GR80 and GR90 values, which are defined as growth reduction factors that correspond to the effective dose of herbicide required to kill or control 20 percent, 50 percent, 80 percent or 90 percent, respectively, of a target plant.
smiles,measurement,setting,value
COC(=O)c1nc(-c2ccc3cc[nH]c3c2)c(F)c(N)c1Cl [Compound 1.08],activity when X is CF compared with X is CH,[1],significant increase in activity
Nc1c(F)c(-c2ccc3cc[nH]c3c2)nc(C(=O)O)c1Cl [Compound 1.09],activity when X is CF compared with X is CH,[1],significant increase in activity
COC(=O)c1nc(-c2ccc(Cl)c3ccoc23)c(F)c(N)c1Cl [Compound 2.24],"Visual Growth Reduction (%) 21 Days After Application, CIRAR","[2]; CIRAR, 17.5 g ai/ha",D (60-74)
same,"Visual Growth Reduction (%) 21 Days After Application, CIRAR","[2]; CIRAR, 35 g ai/ha",C (75-84)
same,"Visual Growth Reduction (%) 21 Days After Application, CIRAR","[2]; CIRAR, 70 g ai/ha",B (85-94)
same,"GR50, CIRAR","[2]; CIRAR, dose for 50 percent growth reduction, probit analysis",14 g ai/ha
same,"GR80, CIRAR","[2]; CIRAR, dose for 80 percent growth reduction, probit analysis",35 g ai/ha
same,"GR90, CIRAR","[2]; CIRAR, dose for 90 percent growth reduction, probit analysis",57 g ai/ha
same,"Visual Growth Reduction (%) 21 Days After Application, GALAP","[2]; GALAP, 17.5 g ai/ha",D (60-74)
same,"Visual Growth Reduction (%) 21 Days After Application, GALAP","[2]; GALAP, 35 g ai/ha",B (85-94)
same,"Visual Growth Reduction (%) 21 Days After Application, GALAP","[2]; GALAP, 70 g ai/ha",B (85-94)
same,"GR50, GALAP","[2]; GALAP, dose for 50 percent growth reduction, probit analysis",7 g ai/ha
same,"GR80, GALAP","[2]; GALAP, dose for 80 percent growth reduction, probit analysis",23 g ai/ha
same,"GR90, GALAP","[2]; GALAP, dose for 90 percent growth reduction, probit analysis",44 g ai/ha
same,"Visual Growth Reduction (%) 21 Days After Application, HORVS","[2]; HORVS, 17.5 g ai/ha",G (0-29)
same,"Visual Growth Reduction (%) 21 Days After Application, HORVS","[2]; HORVS, 35 g ai/ha",G (0-29)
same,"Visual Growth Reduction (%) 21 Days After Application, HORVS","[2]; HORVS, 70 g ai/ha",G (0-29)
same,"GR20, HORVS","[2]; HORVS, dose for 20 percent growth reduction, probit analysis",66 g ai/ha
same,"Visual Growth Reduction (%) 21 Days After Application, KCHSC","[2]; KCHSC, 17.5 g ai/ha",D (60-74)
same,"Visual Growth Reduction (%) 21 Days After Application, KCHSC","[2]; KCHSC, 35 g ai/ha",C (75-84)
same,"Visual Growth Reduction (%) 21 Days After Application, KCHSC","[2]; KCHSC, 70 g ai/ha",B (85-94)
same,"GR50, KCHSC","[2]; KCHSC, dose for 50 percent growth reduction, probit analysis",4 g ai/ha
same,"GR80, KCHSC","[2]; KCHSC, dose for 80 percent growth reduction, probit analysis",33 g ai/ha
same,"GR90, KCHSC","[2]; KCHSC, dose for 90 percent growth reduction, probit analysis",103 g ai/ha
same,"Visual Growth Reduction (%) 21 Days After Application, LAMPU","[2]; LAMPU, 17.5 g ai/ha",E (45-59)
same,"Visual Growth Reduction (%) 21 Days After Application, LAMPU","[2]; LAMPU, 35 g ai/ha",D (60-74)
same,"Visual Growth Reduction (%) 21 Days After Application, LAMPU","[2]; LAMPU, 70 g ai/ha",C (75-84)
same,"GR50, LAMPU","[2]; LAMPU, dose for 50 percent growth reduction, probit analysis",15 g ai/ha
same,"GR80, LAMPU","[2]; LAMPU, dose for 80 percent growth reduction, probit analysis",93 g ai/ha
same,"GR90, LAMPU","[2]; LAMPU, dose for 90 percent growth reduction, probit analysis",>140 g ai/ha
same,"Visual Growth Reduction (%) 21 Days After Application, MATCH","[2]; MATCH, 17.5 g ai/ha",G (0-29)
same,"Visual Growth Reduction (%) 21 Days After Application, MATCH","[2]; MATCH, 35 g ai/ha",G (0-29)
same,"Visual Growth Reduction (%) 21 Days After Application, MATCH","[2]; MATCH, 70 g ai/ha",G (0-29)
same,"GR50, MATCH","[2]; MATCH, dose for 50 percent growth reduction, probit analysis",114 g ai/ha
same,"GR80, MATCH","[2]; MATCH, dose for 80 percent growth reduction, probit analysis",>140 g ai/ha
same,"GR90, MATCH","[2]; MATCH, dose for 90 percent growth reduction, probit analysis",>140 g ai/ha
same,"Visual Growth Reduction (%) 21 Days After Application, PAPRH","[2]; PAPRH, 17.5 g ai/ha",D (60-74)
same,"Visual Growth Reduction (%) 21 Days After Application, PAPRH","[2]; PAPRH, 35 g ai/ha",D (60-74)
same,"Visual Growth Reduction (%) 21 Days After Application, PAPRH","[2]; PAPRH, 70 g ai/ha",C (75-84)
same,"GR50, PAPRH","[2]; PAPRH, dose for 50 percent growth reduction, probit analysis",24 g ai/ha
same,"GR80, PAPRH","[2]; PAPRH, dose for 80 percent growth reduction, probit analysis",52 g ai/ha
same,"GR90, PAPRH","[2]; PAPRH, dose for 90 percent growth reduction, probit analysis",77 g ai/ha
same,"Visual Growth Reduction (%) 21 Days After Application, SASKR","[2]; SASKR, 17.5 g ai/ha",D (60-74)
same,"Visual Growth Reduction (%) 21 Days After Application, SASKR","[2]; SASKR, 35 g ai/ha",B (85-94)
same,"Visual Growth Reduction (%) 21 Days After Application, SASKR","[2]; SASKR, 70 g ai/ha",B (85-94)
same,"GR50, SASKR","[2]; SASKR, dose for 50 percent growth reduction, probit analysis",3 g ai/ha
same,"GR80, SASKR","[2]; SASKR, dose for 80 percent growth reduction, probit analysis",28 g ai/ha
same,"GR90, SASKR","[2]; SASKR, dose for 90 percent growth reduction, probit analysis",95 g ai/ha
same,"Visual Growth Reduction (%) 21 Days After Application, SINAR","[2]; SINAR, 17.5 g ai/ha",B (85-94)
same,"Visual Growth Reduction (%) 21 Days After Application, SINAR","[2]; SINAR, 35 g ai/ha",A (95-100)
same,"Visual Growth Reduction (%) 21 Days After Application, SINAR","[2]; SINAR, 70 g ai/ha",A (95-100)
same,"GR50, SINAR","[2]; SINAR, dose for 50 percent growth reduction, probit analysis",6 g ai/ha
same,"GR80, SINAR","[2]; SINAR, dose for 80 percent growth reduction, probit analysis",13 g ai/ha
same,"GR90, SINAR","[2]; SINAR, dose for 90 percent growth reduction, probit analysis",19 g ai/ha
same,"Visual Growth Reduction (%) 21 Days After Application, TRZAS","[2]; TRZAS, 17.5 g ai/ha",G (0-29)
same,"Visual Growth Reduction (%) 21 Days After Application, TRZAS","[2]; TRZAS, 35 g ai/ha",G (0-29)
same,"Visual Growth Reduction (%) 21 Days After Application, TRZAS","[2]; TRZAS, 70 g ai/ha",F (30-44)
same,"GR20, TRZAS","[2]; TRZAS, dose for 20 percent growth reduction, probit analysis",52 g ai/ha
same,"Visual Growth Reduction (%) 21 Days After Application, VERPE","[2]; VERPE, 17.5 g ai/ha",F (30-44)
same,"Visual Growth Reduction (%) 21 Days After Application, VERPE","[2]; VERPE, 35 g ai/ha",D (60-74)
same,"Visual Growth Reduction (%) 21 Days After Application, VERPE","[2]; VERPE, 70 g ai/ha",C (75-84)
same,"GR50, VERPE","[2]; VERPE, dose for 50 percent growth reduction, probit analysis",30 g ai/ha
same,"GR80, VERPE","[2]; VERPE, dose for 80 percent growth reduction, probit analysis",66 g ai/ha
same,"GR90, VERPE","[2]; VERPE, dose for 90 percent growth reduction, probit analysis",100 g ai/ha
same,"Visual Growth Reduction (%) 21 Days After Application, VIOTR","[2]; VIOTR, 17.5 g ai/ha",E (45-59)
same,"Visual Growth Reduction (%) 21 Days After Application, VIOTR","[2]; VIOTR, 35 g ai/ha",D (60-74)
same,"Visual Growth Reduction (%) 21 Days After Application, VIOTR","[2]; VIOTR, 70 g ai/ha",C (75-84)
same,"GR50, VIOTR","[2]; VIOTR, dose for 50 percent growth reduction, probit analysis",24 g ai/ha
same,"GR80, VIOTR","[2]; VIOTR, dose for 80 percent growth reduction, probit analysis",78 g ai/ha
same,"GR90, VIOTR","[2]; VIOTR, dose for 90 percent growth reduction, probit analysis",>140 g ai/ha
